Assay results published in patent US20260258009A1, “3-[(BENZO[D][1,3]DIOXOLANE-4-YL)OXY]PROPYLAMINE HYDROCHLORIDE, OPTICAL ISOMER AND CRYSTAL THEREOF, AND PREPARATION METHOD THEREFOR” (priority 2022, published 2026).
Structures can show the parent of a compound that is named as a salt. Where two headings read alike, the source gives them in different places.

How the values were obtained:
[1] = Solubility experiment (HPLC, external standard method); format: physicochemical
Experimental: The concentrated solution was placed in a 20° C. water bath thermostatic oscillator for overnight oscillation (supersaturation) and filtered. The filtrate was taken, 1 mL of which was precisely measured and placed in a 100 mL volumetric flask. A diluent (water) was added, the mixture was diluted to volume and mixed well, 1 mL of which was precisely measured and placed in a 10 mL volumetric flask. A diluent was added, the mixture was diluted to volume and mixed well as a test sample solution.
Control substance solution: A proper amount of 5 samples were respectively taken, precisely measured, dissolved in a proper amount of a diluent by ultrasonication, and diluted to give a solution containing about 0.1 mg of the sample per 1 mL. Two duplicate samples were prepared for each batch.
• (1) Preparation of buffer: About 2.6428 g ammonium sulfate was weighed and dissolved in 1000 mL of water. 2 mL of triethylamine was added, and the pH value was adjusted to 4.0 with dilute sulfuric acid. • (2) Preparation of mobile phase: Methanol-0.02 mol/L ammonium sulfate solution (2 mL triethylamine was added per 1000 mL, and the pH value was adjusted to 4.0 with dilute sulfuric acid) (45:55). 1000 mL was prepared, mixed well, filtered, and used after ultrasonic treatment.
Detection wavelength: 230 nm; flow rate: 1.0 mL/min; column temperature: 35° C.; sample injection volume: 20 μL; chromatographic column: Agilent Eclipse XDB-C18 chromatographic column (4.6×150 mm, 5 μm); mobile phase: methanol-0.02 mol/L ammonium sulfate solution (2 mL triethylamine was added per 1000 mL, and the pH value was adjusted to 4.0 with dilute sulfuric acid) (45:55).
20 μL of each solution was precisely measured, and injected separately into a liquid chromatograph. The chromatograms were recorded, and the solubility of the compounds was determined according to an external standard method.

[2] = Experiments of influencing factors (crystal form stability, XRPD); format: physicochemical; settings: hydrochloride; for Crystal form after High temperature of 60° C. / Crystal form after Illumination of 5000 1x / Crystal form after High humidity of 92.5%: XRPD; for Crystal form stability (experimental conclusion): high temperature, high humidity, illumination, condition stated in the value; for Crystal form after Illumination of 5000 1x: photostability tester 5000 lx; for Crystal form after High humidity of 92.5%: relative humidity 92.5%
Experimental: High temperature experiment: About 1 g of the A, B, and C crystal forms were respectively weighed, placed in a clean watch glass, and placed at 60° C. for 10 days. The samples were taken on day 0, day 5, day 10, and day 30 for XRPD analysis.
High humidity experiment: About 1 g of the A, B, and C crystal form samples were respectively weighed, placed in a clean watch glass, and placed at a relative humidity of 92.5% for 10 days. The samples were taken on day 0, day 5, day 10, and day 30 for XRPD analysis.
Illumination experiment: About 1 g of the A, B, and C crystal form samples were respectively weighed, placed in a clean watch glass, laid flat, and placed in a photostability tester (the illumination was 5000 lx) for 10 days. The samples were taken on day 0, day 5, day 10, and day 30 for XRPD analysis.

Hygroscopicity test = format: physicochemical; settings: 25° C.±1° C., relative humidity 80%±2%, 24 h; for Hygroscopicity: hydrochloride
Experimental: 17.1. A dried glass weighing bottle with a plug (outer diameter: 50 mm; height: 15 mm) was taken and placed in a suitable thermostatic dryer (with saturated ammonium chloride or ammonium sulfate solution placed in the lower part) at 25° C.±1° C. or an artificial climate box (with a set temperature at 25° C.±1° C. and relative humidity at 80%±2%) on the day before the test, and the weight (m1) was precisely measured. 17.2. An appropriate amount of the A crystal form of the compound of formula (I) was taken and spread in the above weighing bottle, with the thickness of the test sample being about 1 mm in general, and the weight (m2) was precisely measured. […] The weighing bottle was opened and placed in the above conditions at constant temperature and humidity for 24 h together with the cap. 17.4. The weighing bottle was capped, and the weight (m3) was precisely measured. [formula]

[3] = both, beagle, dog, in vivo
Experimental: (§1) Each group had six beagle dogs, half male and half female.
(§2) Preparation of solutions: • 1) Intravenous injection administration: 0.9% Normal saline was used as a vehicle. • 2) Oral administration: According to the dose of 10 mg/kg (based on base), a corresponding mass of the drug was weighed according to the actual weight of the animal, and then filled into a capsule to be administered to the animal.

ICR mice = assay: Mouse forced swimming test; format: in vivo; settings: for Immobility time: mice, 1 h after administration, mean±SD, n=12
Experimental: SPF grade ICR mice were taken. The animals were grouped by weight, 12 animals per group, and the animals were allowed to acclimate for at least 3 days before behavioural test.
The behavioural test was started 1 h after intragastric administration. The mice were placed in a transparent glass cylinder with water (water depth: 15 cm, water temperature: 23-25° C.) and video recorded for 6 min (the background was an LED light panel). At the end of the time, the mice were removed from the water and the next batch of mice was subjected to the behavioural test. Water was changed after every 3 batches of tests. After the test, the video of the behavioural test was derived and the cumulative immobility time of the mice 4 min after the 6 min forced swimming period was analyzed using the Forced Swim Scant 2.0 software.
The test results are expressed as mean±SD. Comparisons between each group and the vehicle group were conducted using the t-test. The differences were considered statistically significant when. P<0.05.

[4] = Pharmacokinetic assay in beagle dogs; settings: both, dog, in vivo, mean; for half-life: t1/2, beagle dogs
Experimental: as §1, §2

[5] = 5 days, listed as A crystal form
[6] = 10 days, listed as A crystal form
[7] = 30 days, listed as A crystal form
[8] = po, 1 mg/kg, beagle dogs, oral (capsule)

## CNCC[C@@H](Oc1cccc2c1OCO2)c1ccccc1.O=C(O)C(=O)O [(R)—N-methyl-3-phenyl-3-[(benzo[d][1,3]dioxolan-4-yl)oxy]propylamine oxalate, reference compound]
[1]; thermodynamic from solid, Water, 20° C., overnight oscillation, read-out: Solubility
  solubility: 5100 µg/mL

## CNCC[C@@H](Oc1cccc2c1OCO2)c1ccccc1.Cl [Crystal form A of compound of formula (I)] [(R)—N-methyl-3-phenyl-3-[(benzo[d][1,3]dioxolan-4-yl)oxy]propylamine hydrochloride]
[1]
  solubility: 35550 µg/mL
[2]; [5]
  Crystal form after High temperature of 60° C.: Crystal form A
  Crystal form after Illumination of 5000 1x: Crystal form A
  Crystal form after High humidity of 92.5%: Crystal form A
[2]; [6]
  Crystal form after High temperature of 60° C.: Crystal form A
  Crystal form after Illumination of 5000 1x: Crystal form A
  Crystal form after High humidity of 92.5%: Crystal form A
[2]; [7]
  Crystal form after High temperature of 60° C.: Crystal form A
  Crystal form after Illumination of 5000 1x: Crystal form A
  Crystal form after High humidity of 92.5%: Crystal form A
[2]; listed as A crystal form
  Crystal form stability (experimental conclusion): can keep stable under high temperature, high humidity, and illumination
Hygroscopicity test
  Weight gain: 0.01%
Hygroscopicity test; listed as A crystal form of the compound of formula (I)
  Hygroscopicity: no or almost no hygroscopicity
Hygroscopicity test; listed as A crystal form
  Hygroscopicity: no or almost no hygroscopicity
[3]; iv, 0.3 mg/kg
  AUC(0-t): 123.7 ng·h/mL
  AUC(0-∞): 124.5 ng·h/mL
  Cmax: 83.6 ng/mL
  Tmax: 0.08 h
  t1/2: 2.08 h
[3]; po
  bioavailability: 28.2%
[3]; po, 1 mg/kg
  AUC(0-t): 116.3 ng·h/mL
  AUC(0-∞): 117.1 ng·h/mL
  Cmax: 35.3 ng/mL
  Tmax: 0.92 h
  t1/2: 2.48 h

## CNCC[C@H](Oc1cccc2ccccc12)c1cccs1 [Duloxetine hydrochloride, reference compound]
ICR mice; Mus musculus, po, read-out: ED50 (median effective dose, FST-ED50)
  ED50: 6.93 mg/kg
ICR mice; intragastric, 1.25 mg/kg
  Immobility time: 135.1 ± 49.2 s
ICR mice; intragastric, 2.5 mg/kg
  Immobility time: 154.9 ± 76.0 s
ICR mice; intragastric, 5 mg/kg
  Immobility time: 104.9 ± 51.5 s
ICR mice; intragastric, 20 mg/kg
  Immobility time: 29.9 ± 45.4 s
ICR mice; intragastric, 40 mg/kg
  Immobility time: 10.6 ± 17.3 s
ICR mice; mouse forced swimming, intragastric
  minimum effective dose (MED): 5 mg/kg

## CNCC[C@@H](Oc1cccc2c1OCO2)c1ccccc1.Cl [C crystal form, (R)—N-methyl-3-phenyl-3-[(benzo[d][1,3]dioxolan-4-yl)oxy]propylamine hydrochloride]
[2]; 5 days
  Crystal form after High temperature of 60° C.: Crystal form C
  Crystal form after Illumination of 5000 1x: Crystal form C
  Crystal form after High humidity of 92.5%: Crystal form A
[2]; 10 days
  Crystal form after High temperature of 60° C.: Crystal form C
  Crystal form after Illumination of 5000 1x: Crystal form C
  Crystal form after High humidity of 92.5%: Crystal form A
[2]; 30 days
  Crystal form after High temperature of 60° C.: Crystal form C
  Crystal form after Illumination of 5000 1x: Crystal form C
  Crystal form after High humidity of 92.5%: Crystal form A
[2]
  Crystal form stability (experimental conclusion): converted into the A crystal form under the high humidity environment

## CNCC[C@@H](Oc1cccc2c1OCO2)c1ccccc1.Cl [B crystal form, (R)—N-methyl-3-phenyl-3-[(benzo[d][1,3]dioxolan-4-yl)oxy]propylamine hydrochloride]
[2]; 5 days
  Crystal form after High temperature of 60° C.: Crystal form A + B
  Crystal form after Illumination of 5000 1x: Crystal form B
  Crystal form after High humidity of 92.5%: Crystal form A + B
[2]; 10 days
  Crystal form after High temperature of 60° C.: Crystal form A + B
  Crystal form after Illumination of 5000 1x: Crystal form B
  Crystal form after High humidity of 92.5%: Crystal form A + B
[2]; 30 days
  Crystal form after High temperature of 60° C.: Crystal form A + B
  Crystal form after Illumination of 5000 1x: Crystal form B
  Crystal form after High humidity of 92.5%: Crystal form A + B
[2]
  Crystal form stability (experimental conclusion): converted into a mixed crystal of the crystal forms A and B under the high temperature and high humidity environment

## CNCCC(Oc1cccc2c1OCO2)c1ccccc1.O=C(O)C(=O)O (centres unmarked) [N-methyl-3-phenyl-3-[(benzo[d][1,3]dioxolan-4-yl)oxy]propylamine oxalate]
[1]; water, 20 °C, water, thermodynamic from solid, Water, 20° C., overnight oscillation, read-out: Solubility
  solubility: 6900 µg/mL
[4]; iv, 0.3 mg/kg, beagle dogs
  AUC(0-t): 109 ng·h/mL
  AUC(0-inf): 110 ng·h/mL
  Cmax: 71.6 ng/mL
  Tmax: 0.08 h
[4]; iv, 0.3 mg/kg
  half-life: 1.93 h
[4]; [8]
  AUC(0-t): 78.7 ng·h/mL
  AUC(0-inf): 79.9 ng·h/mL
  Cmax: 23.7 ng/mL
  Tmax: 1.43 h
[4]; po, 1 mg/kg, Bioavailability, beagle dogs, oral 1 mg/kg vs intravenous 0.3 mg/kg
  bioavailability: 21.8%
[4]; po, 1 mg/kg, oral (capsule)
  half-life: 1.98 h
